Test results published in ChEMBL document CHEMBL2396621, “Design, synthesis and biological evaluation of 2-mercapto-3-phenethylquinazoline bearing anilide fragments as potential antitumor agents: molecular docking study” (2013).

Experiments:
Format in all cases: functional
[1] = system: PC-3; experiment: Cytotoxicity against human PC3 cells assessed as growth inhibition at 10 uM after 48 hrs by coulter counter analysis; settings: PC-3, 48 h, read-out: GI
[2] = system: SK-OV-3; experiment: Cytotoxicity against human SKOV3 cells assessed as growth inhibition at 10 uM after 48 hrs by coulter counter analysis; settings: SK-OV-3, 48 h, read-out: GI
[3] = system: BT-549; experiment: Cytotoxicity against human BT549 cells assessed as growth inhibition at 10 uM after 48 hrs by coulter counter analysis; settings: BT-549, 48 h, read-out: GI
[4] = system: KM12; experiment: Cytotoxicity against human KM12 cells assessed as growth inhibition at 10 uM after 48 hrs by coulter counter analysis; settings: KM12, 48 h, read-out: GI
[5] = system: HCT-15; experiment: Cytotoxicity against human HCT15 cells assessed as growth inhibition at 10 uM after 48 hrs by coulter counter analysis; settings: HCT-15, 48 h, read-out: GI
[6] = system: CAKI-1; experiment: Cytotoxicity against human Caki1 cells assessed as growth inhibition at 10 uM after 48 hrs by coulter counter analysis; settings: CAKI-1, 48 h, read-out: GI
[7] = system: HCT-116; experiment: Cytotoxicity against human HCT116 cells assessed as growth inhibition at 10 uM after 48 hrs by coulter counter analysis; settings: HCT-116, 48 h, read-out: GI
[8] = system: NCI-H460; experiment: Cytotoxicity against human NCI-H460 cells assessed as growth inhibition at 10 uM after 48 hrs by coulter counter analysis; settings: NCI-H460, 48 h, read-out: GI
[9] = system: SNB-75; experiment: Cytotoxicity against human SNB75 cells assessed as growth inhibition at 10 uM after 48 hrs by coulter counter analysis; settings: SNB-75, 48 h, read-out: GI
[10] = system: UACC-257; experiment: Cytotoxicity against human UACC257 cells assessed as growth inhibition at 10 uM after 48 hrs by coulter counter analysis; settings: UACC-257, 48 h, read-out: GI
[11] = system: SK-MEL-5; experiment: Cytotoxicity against human SK-MEL-5 cells assessed as growth inhibition at 10 uM after 48 hrs by coulter counter analysis; settings: SK-MEL-5, 48 h, read-out: GI
[12] = system: COLO 205; experiment: Cytotoxicity against human COLO205 cells assessed as growth inhibition at 10 uM after 48 hrs by coulter counter analysis; settings: COLO 205, 48 h, read-out: GI
[13] = system: OVCAR-5; experiment: Cytotoxicity against human OVCAR5 cells assessed as growth inhibition at 10 uM after 48 hrs by coulter counter analysis; settings: OVCAR-5, 48 h, read-out: GI
[14] = system: OVCAR-8; experiment: Cytotoxicity against human OVCAR8 cells assessed as growth inhibition at 10 uM after 48 hrs by coulter counter analysis; settings: OVCAR-8, 48 h, read-out: GI
[15] = system: Malme-3M; experiment: Cytotoxicity against human MALME-3M cells assessed as growth inhibition at 10 uM after 48 hrs by coulter counter analysis; settings: read-out: GI
[16] = system: MDA-MB-468; experiment: Cytotoxicity against human MDA-MB-468 cells assessed as growth inhibition at 10 uM after 48 hrs by coulter counter analysis; settings: MDA-MB-468, 48 h, read-out: GI
[17] = system: SF-539; experiment: Cytotoxicity against human SF539 cells assessed as growth inhibition at 10 uM after 48 hrs by coulter counter analysis; settings: SF-539, 48 h, read-out: GI
[18] = system: 786-0; experiment: Cytotoxicity against human 786-0 cells assessed as growth inhibition at 10 uM after 48 hrs by coulter counter analysis; settings: 786-0, 48 h, read-out: GI
[19] = system: OVCAR-3; experiment: Cytotoxicity against human OVCAR3 cells assessed as growth inhibition at 10 uM after 48 hrs by coulter counter analysis; settings: OVCAR-3, 48 h, read-out: GI
[20] = system: LOX IMVI; experiment: Cytotoxicity against human LOXIMVI cells assessed as growth inhibition at 10 uM after 48 hrs by coulter counter analysis; settings: read-out: GI
[21] = system: SF-295; experiment: Cytotoxicity against human SF295 cells assessed as growth inhibition at 10 uM after 48 hrs by coulter counter analysis; settings: SF-295, 48 h, read-out: GI
[22] = system: T47D; experiment: Cytotoxicity against human T47D cells assessed as growth inhibition at 10 uM after 48 hrs by coulter counter analysis; settings: read-out: GI
[23] = system: MDA-MB-231; experiment: Cytotoxicity against human MDA-MB-231 cells assessed as growth inhibition at 10 uM after 48 hrs by coulter counter analysis; settings: MDA-MB-231, 48 h, read-out: GI
[24] = system: A549; experiment: Cytotoxicity against human A549 cells assessed as growth inhibition at 10 uM after 48 hrs by coulter counter analysis; settings: A549, 48 h, read-out: GI
[25] = system: DU-145; experiment: Cytotoxicity against human DU145 cells assessed as growth inhibition at 10 uM after 48 hrs by coulter counter analysis; settings: DU-145, 48 h, read-out: GI
[26] = Cytotoxicity against human NCI-ADR-RES cells assessed as growth inhibition at 10 uM after 48 hrs by coulter counter analysis; settings: read-out: GI
[27] = system: IGROV-1; experiment: Cytotoxicity against human IGROV1 cells assessed as growth inhibition at 10 uM after 48 hrs by coulter counter analysis; settings: IGROV-1, 48 h, read-out: GI
[28] = system: NCI-H522; experiment: Cytotoxicity against human NCI-H522 cells assessed as growth inhibition at 10 uM after 48 hrs by coulter counter analysis; settings: NCI-H522, 48 h, read-out: GI
[29] = system: UO-31; experiment: Cytotoxicity against human UO31 cells assessed as growth inhibition at 10 uM after 48 hrs by coulter counter analysis; settings: UO-31, 48 h, read-out: GI
[30] = system: A498; experiment: Cytotoxicity against human A498 cells assessed as growth inhibition at 10 uM after 48 hrs by coulter counter analysis; settings: A498, 48 h, read-out: GI
[31] = system: SNB-19; experiment: Cytotoxicity against human SNB19 cells assessed as growth inhibition at 10 uM after 48 hrs by coulter counter analysis; settings: SNB-19, 48 h, read-out: GI
[32] = system: MCF7; experiment: Cytotoxicity against human MCF7 cells assessed as growth inhibition at 10 uM after 48 hrs by coulter counter analysis; settings: MCF7, 48 h, read-out: GI
[33] = system: MDA-MB-435; experiment: Cytotoxicity against human MDA-MB-435 cells assessed as growth inhibition at 10 uM after 48 hrs by coulter counter analysis; settings: MDA-MB-435, 48 h, read-out: GI
[34] = system: HCC 2998; experiment: Cytotoxicity against human HCC2998 cells assessed as growth inhibition at 10 uM after 48 hrs by coulter counter analysis; settings: HCC 2998, 48 h, read-out: GI
[35] = system: TK-10; experiment: Cytotoxicity against human TK10 cells assessed as growth inhibition at 10 uM after 48 hrs by coulter counter analysis; settings: TK-10, 48 h, read-out: GI
[36] = system: SW-620; experiment: Cytotoxicity against human SW620 cells assessed as growth inhibition at 10 uM after 48 hrs by coulter counter analysis; settings: SW-620, 48 h, read-out: GI
[37] = system: RXF 393; experiment: Cytotoxicity against human RXF393 cells assessed as growth inhibition at 10 uM after 48 hrs by coulter counter analysis; settings: RXF 393, 48 h, read-out: GI

| SMILES | inhibition of growth at 10 µM [1] [%] | inhibition of growth at 10 µM [2] [%] | inhibition of growth at 10 µM [3] [%] | inhibition of growth at 10 µM [4] [%] | inhibition of growth at 10 µM [5] [%] | inhibition of growth at 10 µM [6] [%] | inhibition of growth at 10 µM [7] [%] | inhibition of growth at 10 µM [8] [%] | inhibition of growth at 10 µM [9] [%] | inhibition of growth at 10 µM [10] [%] | inhibition of growth at 10 µM [11] [%] | inhibition of growth at 10 µM [12] [%] | inhibition of growth at 10 µM [13] [%] | inhibition of growth at 10 µM [14] [%] | inhibition of growth at 10 µM [15] [%] | inhibition of growth at 10 µM [16] [%] | inhibition of growth at 10 µM [17] [%] | inhibition of growth at 10 µM [18] [%] | inhibition of growth at 10 µM [19] [%] | inhibition of growth at 10 µM [20] [%] | also measured |
| --- | --- | --- | --- | --- | --- | --- | --- | --- | --- | --- | --- | --- | --- | --- | --- | --- | --- | --- | --- | --- | --- |
| O=C(CSc1nc2ccccc2c(=O)n1CCc1ccccc1)Nc1ccccc1 | 10 | 14 | < 10 | < 10 | < 10 | < 10 | 15 | < 10 | 12 | < 10 | 13 | < 10 | < 10 | < 10 | < 10 | 18 | < 10 | < 10 | < 10 | 11 | inhibition of growth at 10 µM [21]: < 10%; inhibition of growth at 10 µM [22]: 13%; inhibition of growth at 10 µM [23]: 35%; inhibition of growth at 10 µM [24]: 16%; inhibition of growth at 10 µM [25]: < 10%; inhibition of growth at 10 µM [26]: < 10%; inhibition of growth at 10 µM [27]: < 10%; inhibition of growth at 10 µM [28]: 10%; inhibition of growth at 10 µM [29]: < 10%; inhibition of growth at 10 µM [30]: 11%; inhibition of growth at 10 µM [31]: < 10%; inhibition of growth at 10 µM [32]: 19%; inhibition of growth at 10 µM [33]: < 10%; inhibition of growth at 10 µM [34]: < 10%; inhibition of growth at 10 µM [35]: < 10%; inhibition of growth at 10 µM [36]: < 10%; inhibition of growth at 10 µM [37]: < 10% |
| CC(=O)c1ccc(NC(=O)CSc2nc3ccccc3c(=O)n2CCc2ccccc2)cc1 | 20 | 17 | < 10 | 18 | 21 | 16 | 37 | 31 | 41 | 36 | 25 | 12 | 10 | 42 | 13 | 14 | < 10 | < 10 | 23 | 25 | inhibition of growth at 10 µM [21]: 21%; inhibition of growth at 10 µM [22]: 19%; inhibition of growth at 10 µM [23]: 39%; inhibition of growth at 10 µM [24]: 29%; inhibition of growth at 10 µM [25]: 11%; inhibition of growth at 10 µM [26]: 33%; inhibition of growth at 10 µM [27]: 20%; inhibition of growth at 10 µM [28]: 51%; inhibition of growth at 10 µM [29]: 10%; inhibition of growth at 10 µM [30]: < 10%; inhibition of growth at 10 µM [31]: 20%; inhibition of growth at 10 µM [32]: 16%; inhibition of growth at 10 µM [33]: 23%; inhibition of growth at 10 µM [34]: < 10%; inhibition of growth at 10 µM [35]: < 10%; inhibition of growth at 10 µM [36]: 14%; inhibition of growth at 10 µM [37]: < 10% |
| O=C(CSc1nc2ccccc2c(=O)n1CCc1ccccc1)Nc1cc(Cl)ccc1C(=O)O | < 10 | < 10 | 10 | < 10 | < 10 | 17 | < 10 | < 10 | 20 | < 10 | < 10 | < 10 | < 10 | < 10 | < 10 | < 10 | < 10 | < 10 | < 10 | < 10 | inhibition of growth at 10 µM [21]: < 10%; inhibition of growth at 10 µM [22]: < 10%; inhibition of growth at 10 µM [23]: < 10%; inhibition of growth at 10 µM [24]: < 10%; inhibition of growth at 10 µM [25]: < 10%; inhibition of growth at 10 µM [26]: < 10%; inhibition of growth at 10 µM [27]: < 10%; inhibition of growth at 10 µM [28]: < 10%; inhibition of growth at 10 µM [29]: 18%; inhibition of growth at 10 µM [30]: 10%; inhibition of growth at 10 µM [31]: < 10%; inhibition of growth at 10 µM [32]: < 10%; inhibition of growth at 10 µM [33]: < 10%; inhibition of growth at 10 µM [34]: < 10%; inhibition of growth at 10 µM [35]: < 10%; inhibition of growth at 10 µM [36]: < 10%; inhibition of growth at 10 µM [37]: < 10% |
| COc1cc(NC(=O)CCSc2nc3ccccc3c(=O)n2CCc2ccccc2)cc(OC)c1OC | 25 | 44 | 13 | 39 | 18 | 74 | 40 | 17 | 38 | 72 | 31 | 20 | < 10 | 28 | 77 | 27 | 70 | 29 | 11 | 54 | inhibition of growth at 10 µM [21]: 10%; inhibition of growth at 10 µM [22]: 47%; inhibition of growth at 10 µM [23]: 66%; inhibition of growth at 10 µM [24]: 29%; inhibition of growth at 10 µM [25]: < 10%; inhibition of growth at 10 µM [26]: 13%; inhibition of growth at 10 µM [27]: 21%; inhibition of growth at 10 µM [28]: 52%; inhibition of growth at 10 µM [29]: 22%; inhibition of growth at 10 µM [30]: 37%; inhibition of growth at 10 µM [31]: 12%; inhibition of growth at 10 µM [32]: 33%; inhibition of growth at 10 µM [33]: 38%; inhibition of growth at 10 µM [34]: < 10%; inhibition of growth at 10 µM [35]: 17%; inhibition of growth at 10 µM [36]: 14%; inhibition of growth at 10 µM [37]: 12% |
